Holding throughout (assay type): cell-based
For experiment [1], the system named is SW480 colon cancer cells. The experiment in a line: Cell viability assay (CellTiter-Blue), four days. The note with it: Homo sapiens, 96 h; for EC50: CellTiter-Blue cell viability; for inhibition at 10 µM: read-out: percent inhibition at 10 μM (given for EC50 of >10 μM). The method in brief: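 Approximately 2×10^3 SW480 cells per well are seeded with compound (8 points, threefold steps, top 10 μM) and incubated four days at 37 °C. CellTiter-Blue is then added for about 3 h and fluorescence read. Non-linear regression gives EC50; for values beyond 10 μM, percent inhibition at that concentration is listed.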

Experiment [2] concerns primary human mesenchymal stem cells (hMSCs). The experiment in a line: Induction of chondrogenesis in primary human mesenchymal stem cells (nodule imaging, Rhodamine B/Nile Red). The conditions noted are these: hMSC chondrogenesis; for Emax: TGF-β3 as positive control, read-out: Max. Activity as % TGF-β3 activity; for EC50: concentration required to induce 50% levels of chondrogenesis vs TGF-β3, read-out: Conc (nM) of 50% TGF-β3 activity. The method in brief: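 hMSCs (passage 3–6) in incomplete chondrogenic induction medium were dosed at 2700–10 nM (96-well, 6-point) or 5000–2.2 nM (384-well, 8-point), 0.03% DMSO final, for 6 days at 37° C. Fixed nodules stained with Rhodamine B/Nile Red were imaged; nodule area normalized to DMSO wells gave EC50, maximum activity and dose at maximum, with TGF-β3 (10 ng/mL) as positive control.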

The test system of experiment [3] is Wnt activity (Sp5-Luc reporter, SW480 colon carcinoma cells). The experiment in a line: Screening assay for Wnt activity: Sp5-Luc reporter gene assay in SW480 cells. The conditions noted are these: Homo sapiens, overnight incubation, 10-point dose-response from 10 μM. The method in brief: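 SW480 cells stably carrying Sp5-Luc reporter (eight TCF/LEF sites) plated at 4,000/well in 1% FBS medium with compound (10-point 1:3 series from 10 μM, 0.1% DMSO) overnight at 37 °C. BrightGlo luminescence normalized to DMSO; EC50 by four-parameter fit, else % inhibition at 10 μM.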
On the technique in general: Reporter assays use an easily measured gene product as a stand-in for the process of interest.

Each structure is given as a SMILES string.

In the case of `CC(C)CC(=O)Nc1cncc(-c2ccc3[nH]nc(-c4nc5c(-c6cccc(F)c6)ccnc5[nH]4)c3n2)c1` [Compound 2, N-(5-(3-(7-(3-fluorophenyl)-3H-imidazo[4,5-b]pyridin-2-yl)-1H-pyrazolo [4,3-b]pyridin-5-yl)pyridin-3-yl)-3-methylbutanamide], the EC50 was 400 nM in experiment [1], 21 nM in experiment [2] and 495 nM in experiment [3]. The Emax in experiment [2] came out at 56%.

Regarding `CN(C)c1cncc(-c2ccc3[nH]nc(-c4nc5c(-c6cccc(F)c6)ccnc5[nH]4)c3n2)c1` [Compound 7, 5-(3-(7-(3-fluorophenyl)-3H-imidazo[4,5-b]pyridin-2-yl)-1H-pyrazolo[4,3-b]pyridin-5-yl)-N,N-dimethylpyridin-3-amine], the EC50 in experiment [1] was 540 nM; in experiment [2], 10 nM; in experiment [3], 929 nM. The Emax in experiment [2] came to 84%.

Consider `CN(C)Cc1cncc(-c2ccc3[nH]nc(-c4nc5c(-c6cccc(F)c6)ccnc5[nH]4)c3n2)c1` [Compound 13, 1-(5-(3-(7-(3-fluorophenyl)-3H-imidazo[4,5-b]pyridin-2-yl)-1H-pyrazolo [4,3-b]pyridin-5-yl)pyridin-3-yl)-N,N-dimethylmethanamine], for which the EC50 in experiment [1] is 1130 nM; in experiment [3], 2880 nM. Further, the Emax in experiment [2] is 29%.

Consider `Fc1ccc(-c2ccnc3[nH]c(-c4n[nH]c5ccc(-c6cncc(CN7CCCC7)c6)nc45)nc23)cc1` [Compound 42, 3-(7-(4-fluorophenyl)-3H-imidazo[4,5-b]pyridin-2-yl)-5-(5-(pyrrolidin-1-ylmethyl)pyridin-3-yl)-1H-pyrazolo[4,3-b]pyridine], for which the EC50 in experiment [1] worked out at 1080 nM; in experiment [3], 3730 nM. Also, the Emax in experiment [2] was determined as 17%.

Take `O=C(Nc1cncc(-c2ccc3[nH]nc(-c4nc5c(-c6ccc(F)cc6)ccnc5[nH]4)c3n2)c1)C1CCC1` [Compound 49, N-(5-(3-(7-(4-fluorophenyl)-3H-imidazo[4,5-b]pyridin-2-yl)-1H-pyrazolo [4,3-b]pyridin-5-yl)pyridin-3-yl)cyclobutanecarboxamide]: the EC50 in experiment [1] was found to be 551 nM; in experiment [2], 30 nM; in experiment [3], 908 nM. Moreover, the Emax in experiment [2] was determined as 69%.

As usually defined, the inhibition is the drop in the measured response relative to a control, in per cent. As to `c1cncc(-c2ccc3[nH]nc(-c4nc5c(-c6cccnc6)ccnc5[nH]4)c3n2)c1` [Compound 88, 5-(pyridin-3-yl)-3-(7-(pyridin-3-yl)-3H-imidazo[4,5-b]pyridin-2-yl)-1H-pyrazolo [4,3-b]pyridine], the EC50 in experiment [1] is greater than 10000 nM; in experiment [2], 300 nM; in experiment [3], 1600 nM. The inhibition at 10 µM in experiment [1] was determined as 42.2%. Also, the Emax in experiment [2] is 95%.

As for `CC(C)Nc1cncc(-c2ccc3[nH]nc(-c4nc5c(-c6cccnc6)ccnc5[nH]4)c3n2)c1` [Compound 96, N-isopropyl-5-(3-(7-(pyridin-3-yl)-3H-imidazo[4,5-b]pyridin-2-yl)-1H-pyrazolo[4,3-b]pyridin-5-yl)pyridin-3-amine], the EC50 was found to be 2000 nM in experiment [1], 10 nM in experiment [2] and 1960 nM in experiment [3]. For the same compound, the Emax in experiment [2] is 113%.

As to `Cc1ccncc1-c1ccc2[nH]nc(-c3nc4c(-c5ccsc5)ccnc4[nH]3)c2n1` [Compound 285, 5-(4-methylpyridin-3-yl)-3-(7-(thiophen-3-yl)-3H-imidazo[4,5-b]pyridin-2-yl)-1H-pyrazolo[4,3-b]pyridine], the figures for the EC50 in experiment [1] and in experiment [3] were 944 nM and 865 nM, respectively. Also, in experiment [2], the Emax was found to be 33%.

With `CCCC(=O)Nc1cncc(-c2ccc3[nH]nc(-c4nc5c(-c6ccsc6)ccnc5[nH]4)c3n2)c1` [Compound 297, N-(5-(3-(7-(thiophen-3-yl)-3H-imidazo[4,5-b]pyridin-2-yl)-1H-pyrazolo[4,3-b]pyridin-5-yl)pyridin-3-yl)butyramide], the EC50 in experiment [1] amounted to 2640 nM; in experiment [3] it was 822 nM. Further, the Emax in experiment [2] is 40%.

`FC1(F)CCN(Cc2cncc(-c3ccc4[nH]nc(-c5nc6c(-c7ccsc7)ccnc6[nH]5)c4n3)c2)C1` [Compound 306, 5-(5-((3,3-difluoropyrrolidin-1-yl)methyl)pyridin-3-yl)-3-(7-(thiophen-3-yl)-3H-imidazo[4,5-b]pyridin-2-yl)-1H-pyrazolo[4,3-b]pyridine]: the figures for the EC50 in experiment [1], in experiment [2] and in experiment [3] were 580 nM, 30 nM and 533 nM, respectively. In experiment [2], the Emax was determined as 77%.

Consider `CCNCc1cncc(-c2ccc3[nH]nc(-c4nc5c(-c6ccoc6)ccnc5[nH]4)c3n2)c1` [Compound 314, N-((5-(3-(7-(furan-3-yl)-3H-imidazo[4,5-b]pyridin-2-yl)-1H-pyrazolo[4,3-b]pyridin-5-yl)pyridin-3-yl)methyl)ethanamine], for which the EC50 in experiment [1] came to 2820 nM; in experiment [3] it was 3830 nM. Moreover, in experiment [2], the Emax came to 32%.

Take `CC(C)Nc1cncc(-c2ccc3[nH]nc(-c4nc5c(-c6ccoc6)ccnc5[nH]4)c3n2)c1` [Compound 320, 5-(3-(7-(furan-3-yl)-3H-imidazo[4,5-b]pyridin-2-yl)-1H-pyrazolo[4,3-b]pyridin-5-yl)-N-isopropylpyridin-3-amine]: the EC50 in experiment [1] is 378 nM; in experiment [2], 100 nM; in experiment [3], 341 nM. Moreover, in experiment [2], the Emax was 64%.

As for `CCCCC(=O)Nc1cncc(-c2ccc3[nH]nc(-c4nc5c(-c6ccoc6)ccnc5[nH]4)c3n2)c1` [Compound 327, N-(5-(3-(7-(furan-3-yl)-3H-imidazo[4,5-b]pyridin-2-yl)-1H-pyrazolo[4,3-b]pyridin-5-yl)pyridin-3-yl)pentanamide], in experiment [1], the EC50 is greater than 10000 nM and the inhibition at 10 µM was 4.9%. In addition, in experiment [2], the Emax was determined as 83% and the EC50 was 10 nM. The EC50 in experiment [3] was found to be 803 nM.

On to `CN(C)Cc1cncc(-c2ccc3[nH]nc(-c4nc5c(-c6cccs6)ccnc5[nH]4)c3n2)c1` [Compound 349, N,N-dimethyl-1-(5-(3-(7-(thiophen-2-yl)-3H-imidazo[4,5-b]pyridin-2-yl)-1H-pyrazolo[4,3-b]pyridin-5-yl)pyridin-3-yl)methanamine], for which the EC50 in experiment [1] was found to be 1160 nM; in experiment [2] it was 30 nM; in experiment [3] it was 3960 nM. Also, the Emax in experiment [2] was determined as 108%.

Consider `Cc1ccc(-c2ccnc3[nH]c(-c4n[nH]c5ccc(-c6cncc(N)c6)nc45)nc23)s1` [Compound 395, 5-(3-(7-(5-methylthiophen-2-yl)-3H-imidazo[4,5-b]pyridin-2-yl)-1H-pyrazolo[4,3-b]pyridin-5-yl)pyridin-3-amine], for which the EC50 amounted to 84 nM in experiment [1], 100 nM in experiment [2] and 47 nM in experiment [3]. Moreover, in experiment [2], the Emax is 118%.

For the compound `Cc1ccc(-c2ccnc3[nH]c(-c4n[nH]c5ccc(-c6cncc(NC(=O)C(C)C)c6)nc45)nc23)s1` [Compound 401, N-(5-(3-(7-(5-methylthiophen-2-yl)-3H-imidazo[4,5-b]pyridin-2-yl)-1H-pyrazolo[4,3-b]pyridin-5-yl)pyridin-3-yl)isobutyramide], the EC50 in experiment [1] came out at 270 nM; in experiment [2], 1670 nM; in experiment [3], 565 nM. Besides, the Emax in experiment [2] was 66%.

On to `CC(C)Nc1cncc(-c2ccc3[nH]nc(-c4nc5c(-c6cc(F)cc(NCCN(C)C)c6)ccnc5[nH]4)c3n2)c1` [Compound 460, N^1-(3-fluoro-5-(2-(5-(5-(isopropylamino)pyridin-3-yl)-1H-pyrazolo[4,3-b]pyridin-3-yl)-3H-imidazo[4,5-b]pyridin-7-yl)phenyl)-N^2,N^2-dimethylethane-1,2-diamine], for which the EC50 in experiment [1] turned out to be 695 nM; in experiment [2], 30 nM; in experiment [3] it was 1180 nM. The Emax in experiment [2] worked out at 63%.

As for `Cc1ccncc1-c1ccc2[nH]nc(-c3nc4c(-c5cc(F)cc(CNS(C)(=O)=O)c5)ccnc4[nH]3)c2n1` [Compound 481, N-(3-fluoro-5-(2-(5-(4-methylpyridin-3-yl)-1H-pyrazolo[4,3-b]pyridin-3-yl)-3H-imidazo[4,5-b]pyridin-7-yl)benzyl)methanesulfonamide], the EC50 in experiment [1] stood at 5570 nM; in experiment [3] it was 1250 nM. Also, the Emax in experiment [2] was determined as 47%.

`Fc1cccc(-c2ccnc3[nH]c(-c4n[nH]c5ccc(C6=CCNCC6)nc45)nc23)c1` [Compound 506, 3-(7-(3-fluorophenyl)-3H-imidazo[4,5-b]pyridin-2-yl)-5-(1,2,3,6-tetrahydropyridin-4-yl)-1H-pyrazolo[4,3-b]pyridine]: the EC50 was 2800 nM in experiment [1] and greater than 10000 nM in experiment [3]. Further, the Emax in experiment [2] was found to be 47%.

Turning to `NC1CN(c2cncc(-c3ccc4[nH]nc(-c5nc6c(-c7ccc(Cl)s7)ccnc6[nH]5)c4n3)n2)C1` [Compound 1068, 1-(6-(3-(7-(5-Chlorothiophen-2-yl)-3H-imidazo[4,5-b]pyridin-2-yl)-1H-pyrazolo[4,3-b]pyridin-5-yl)pyrazin-2-yl)azetidin-3-amine], in experiment [1], the EC50 was greater than 10000 nM and the inhibition at 10 µM stood at 17.8%. In experiment [3], the EC50 came out at 2300 nM.

Source of the values: patent publication US10329309B2, “3-(3H-imidazo[4,5-B]pyridin-2-yl)-1H-pyrazolo[4,3-B]pyridines and therapeutic uses thereof” (Samumed, LLC, priority 2015, dated 2019).
